# Legend:
# bacteria = assay: ATP concentration (LuminUltra metabolic ATP measurement) in oxidant-treated water; assay type: cell-based
# [1] = test system: sulfate reducing bacteria (SRB); assay: Sulfate reducing bacteria serial dilution culture (Intertek SRB media); assay type: cell-based; conditions: produced water, Example 17, 30 min contact, no grow back
# [2] = ORP (oxidative-reductive potential) measurement of solutions and treated water; assay type: physicochemical; conditions: for ORP (mV vs SHE): early flowback water, Example 19, 1.7 mmol/L oxidant; for ORP (mV vs SHE), maximum: produced water
# Method: Example 9: Hydrogen Peroxide Residual Concentration and interference. A sodium peracetate oxidant solution was produced according to the procedure in Example 4 and diluted to 2800 mg/L (28.5 mmol/L) with either distilled water, for clean water conditions, or tap water containing about 0.18 mg/L copper, which served as an activation catalyst. Some samples were spiked with 30 or 60 mg/L (0.88 or 1.76 mmol/L, respectively) hydrogen peroxide from a 1000 mg/L stock solution. […] The temperature of the samples was maintained at 25±2° C. with a heated water bath. The ORP response was monitored over time to observe the impact of adding low concentrations of hydrogen peroxide. The pH was measured using a high sodium electrode (Oakton model 35805-05) with three point calibration and automatic temperature correction. The ORP (oxidative-reductive potential) of solutions was measured using an Oakton model 35805-15 ORP probe calibrated to the standard hydrogen electrode (SHE) using Thermo/Orion ORP standard 967901.
# (§1) Water parameters were measured by a variety of methods. The pH was measured using a high sodium electrode (Oakton model 35805-05) with three point calibration and automatic temperature correction. The ORP (oxidative-reductive potential) of solutions was measured using an Oakton model 35805-15 ORP probe calibrated to the standard hydrogen electrode (SHE) using Thermo/Orion ORP standard 967901. Sodium ion concentration was measured using a Cole-Parmer ion selective electrode, EW-27504-30, with two point calibration of a sodium standard solution of NaCl. Chloride ion concentration was measured using a Cole-Parmer ion selective electrode, SC-27504-08, with two point calibration of a chloride standard solution of NaCl. All measurements using HACH methods were measured using a HACH DR900 colorimeter. Calcium, magnesium and total hardness concentrations were measured using HACH method 8030. Sulfate concentration was measured using HACH method 10248. Aluminum concentration was measured using HACH method 8012. Iron concentration was measured using HACH method 10249 modified with a longer reaction time to minimize interferences from organic impurities. Total suspended solids (TSS) concentration was measured using HACH method 8006 modified for smaller volumes. Turbidity was measured using HACH method 8237. ATP (adenosine triphosphate) concentration was measured using the LuminUltra 2nd Generation metabolic ATP measurement technology with the LuminUltra Quench Gone-Organic Modified sampling method, a PhotonMaster Luminometer and LumiCalc software. Acid producing bacteria (ABP) and sulfate reducing bacteria (SRB) cell culture concentrations were measured with standard 1 mL serial dilutions using Intertek APB and SRB culture media, 1% salinity.
# pH of treated water = assay type: physicochemical
# Method: as §1
# [3] = Jar test water parameters (hardness, calcium, magnesium, chloride, sodium, aluminum, iron, TSS, turbidity); conditions: produced water, Example 17; for Magnesium (mg/L as CaCO3): untreated 170; for Calcium (mg/L as CaCO3): untreated 1080; for Hardness (mg/L as CaCO3): untreated 1250
# Method: The water sample was thoroughly mixed and 500 mL dispensed into 1 L beakers to conduct tests using a Phipps and Bird programmable jar tester. The jar tester was programmed for a rapid mix of high shear force at 295 rpm impeller speed for 1.25 minutes, followed by a low shear impeller speed of 25 rpm for 10 minutes to promote coalescence and floc formation. All tests were conducted at room temperature, 20-25° C. The 500 mL water samples were dosed with varying amounts of sodium peracetate oxidant solution during the rapid mix from an oxidant solution that was 2.1% wt/vol sodium peracetate (1.6% wt/vol measured as PAA). Also during the rapid mix the jar samples were dosed with 0.5 to 1 mg/L of an anionic polymer dispersion as a coalescence and floc aid.
# Example 17: Oxidative clarification of suspended solids and metals. A produced water sample originating from the Denver-Julesburg basin formation in CO, USA contained suspended and dissolved solids, bacteria and up to about 2% salinity. The water sample was thoroughly mixed and 500 mL dispensed into 1 L beakers to conduct tests using a Phipps and Bird programmable jar tester. The jar tester was programmed for a rapid mix of high shear force at 295 rpm impeller speed for 1.25 minutes followed by a low shear impeller speed of 25 rpm for 20 minutes to promote floc formation and allow for pH and ORP monitoring prior to settling of solids. All tests were conducted at room temperature, 18-21° C. The 500 mL water samples were dosed with varying amounts of sodium peracetate oxidant solution during the rapid mix from an oxidant solution that was 2.2% wt/vol sodium peracetate (1.7% wt/vol measured as PAA). In some cases, during the rapid mix the jar samples were dosed with up to 5 mg/L of an anionic polymer dispersion as a floc aid.
# [4] = Half life and attenuation of oxidant solution in clean water; assay type: physicochemical
# Method: Measurement of Sodium Peracetate Concentration: Measurement of sodium peracetate concentration is conducted by using a peroxide iodometric titration procedure from HACH. A known, volumetric aliquot of the peracetate-containing solution is diluted with a volume of distilled water where the total volume is convenient for titration between about 5 and 25 mL in a small glass beaker or flask. The diluted peracetate solution is stirred and 1 mL of ammonium molybdate reagent (HACH reagent 1933-32) is added. Sulfuric acid in the reagent converts the peracetate to peracetic acid. The contents of one Sulfite 1 Reagent packet (HACH reagent 2203-99) is added to the prepared solution and stirred for 5 minutes. The purple color that develops is titrated to a colorless endpoint with a standard sodium thiosulfate solution (for example, 0.0250 N sodium thiosulfate solution). The peroxide concentration is calculated based on the volume of the aliquot of peracetate-containing solution, the volume and concentration of sodium thiosulfate solution, two electron equivalents consumed for each molecule of peroxide and the molecular weight of the peroxide being measured.
# Example 8: Half Life and Attenuation of Oxidant Solution: The minimum attenuation rate or degradation rate of the sodium peracetate oxidant solution was measured experimentally in clean water conditions. A sodium peracetate oxidant solution containing an initial concentration of 7.5% (wt/vol) sodium peracetate with an initial pH of about 10.1 was prepared by dissolving 0.34 g of sodium hydroxide (98%) in 10.0 mL of 2.85% wt/vol hydrogen peroxide (topical solution) in a 50 mL beaker. Then 1.22 g of triacetin (99%) was combined and the mixture rapidly stirred for 1-2 minutes at room temperature. […]
# The sodium peracetate concentration was measured over time using the method described in Example 4. Concentrations were accurate to about ±2.4% of the values measured. The pH was measured using a high sodium electrode (Oakton model 35805-05) with three point calibration and automatic temperature correction.
# [5] = produced water, Example 17, 52 mg/L
# [6] = produced water, Example 18, 0.30 mmol/L oxidant
# [7] = Piceance produced water, pH 7.00, 22 °C, 500 mg/L initial dose
smiles,measurement,setting,value
"CC(=O)O[O-].[Na+] [sodium peracetate oxidant, sodium peracetate]",rate of reduction of ATP concentration,"bacteria; early flowback water, Example 19, 1.7 mmol/L, ATP at 10, 30 and 60 minutes contact time",The sodium peracetate oxidant treated flowback water had a slightly greater rate of reduction of ATP concentration than chlorine dioxide.
same,ATP reduction at 30 min CT,"bacteria; produced water, Example 17, 29 mg/L",99.0%
same,ATP reduction at 30 min CT,"bacteria; produced water, Example 17, 29 mg/L plus 5 mg/L floc aid",99.6%
same,ATP reduction at 30 min CT,"bacteria; produced water, Example 17, 29 mg/L plus 5 mg/L floc aid, listed as Sodium Peracetate Oxidant",99.6%
same,"ATP (pg/mL), at 30 min CT","bacteria; produced water, Example 17, 29 mg/L plus 5 mg/L floc aid, untreated 135",0.6 pg/mL
same,ATP reduction at 30 min CT,"bacteria; produced water, Example 17, 29 mg/L, listed as Sodium Peracetate Oxidant",99.0%
same,"ATP (pg/mL), at 30 min CT","bacteria; produced water, Example 17, 29 mg/L, untreated 135",1.4 pg/mL
same,ATP reduction at 30 min CT,bacteria; [5],99.3%
same,ATP reduction at 30 min CT,"bacteria; produced water, Example 17, 52 mg/L, listed as Sodium Peracetate Oxidant",99.3%
same,"ATP (pg/mL), at 30 min CT","bacteria; produced water, Example 17, 52 mg/L, untreated 135",0.9 pg/mL
same,"ATP (pg/mL), at 30 min CT",bacteria; [6],1.4 pg/mL
same,ATP reduction at 30 min CT,bacteria; [6],99.0%
same,"ATP (pg/mL), at 15 min CT","bacteria; produced water, Example 18, 0.30 mmol/L oxidant, untreated 135",4.1 pg/mL
same,SRB (cells/mL and log reduction),[1]; 29 mg/L plus 5 mg/L floc aid,5 log (no grow
same,SRB (cells/mL and log reduction),"[1]; 29 mg/L, untreated >>10,000 cells/mL",5 log (no grow
same,SRB (cells/mL and log reduction),[1]; 52 mg/L,5 log (no grow
same,"ORP, rapid initial increase","[2]; Piceance produced water, pH 7.00, 22 °C, 100 mg/L initial dose",~800 mV vs SHE
same,ORP after decline,"[2]; Piceance produced water, pH 7.00, 22 °C, 100 mg/L initial dose, after 120 minutes",about 470 mV
same,"ORP, later level",[2]; [7],about 1040 mV vs SHE
same,"ORP, rapid initial increase",[2]; [7],about 890 mV vs SHE
same,ORP,"[2]; Piceance produced water, first 26 mg/L dose of sequential dosing",more than 800 mV vs SHE
same,ORP maximum,"[2]; Piceance produced water, single dose 78 mg/L (60 mg/L as PAA)",870 mV vs SHE
same,ORP,"[2]; Piceance produced water, single dose 78 mg/L, in less than 60 minutes",below 600 mV vs SHE
same,ORP (mV vs SHE),[2]; contact time 3 minutes,701 mV vs SHE
same,ORP (mV vs SHE),[2]; contact time 13 minutes,581 mV vs SHE
same,ORP (mV vs SHE),[2]; contact time 35 minutes,446 mV vs SHE
same,ORP (mV vs SHE),[2]; contact time 90 minutes,420 mV vs SHE
same,ORP of water drawn from the frac tanks,"[2]; frac on the fly make-up water, about 15 minute contact time",less than 500 mV
same,"ORP (mV vs SHE), maximum","[2]; Example 17, 29 mg/L",over 700 mV vs SHE
same,"ORP (mV vs SHE), maximum","[2]; Example 17, 29 mg/L plus 5 mg/L floc aid",over 700 mV vs SHE
same,"ORP (mV vs SHE), maximum","[2]; Example 17, 29 mg/L plus 5 mg/L floc aid, listed as Sodium Peracetate Oxidant",770 mV vs SHE
same,"ORP (mV vs SHE), maximum","[2]; Example 17, 29 mg/L, listed as Sodium Peracetate Oxidant",766 mV vs SHE
same,"ORP (mV vs SHE), maximum","[2]; Example 17, 52 mg/L",over 800 mV vs SHE
same,"ORP (mV vs SHE), maximum","[2]; Example 17, 52 mg/L, listed as Sodium Peracetate Oxidant",809 mV vs SHE
same,"ORP (mV vs SHE), maximum","[2]; Example 18, 0.30 mmol/L oxidant",766 mV vs SHE
same,pH,"pH of treated water; early flowback water, Example 19, 1.7 mmol/L oxidant, contact time 3 minutes",6.83
same,pH,"pH of treated water; early flowback water, Example 19, 1.7 mmol/L oxidant, contact time 13 minutes",6.87
same,pH,"pH of treated water; early flowback water, Example 19, 1.7 mmol/L oxidant, contact time 35 minutes",6.88
same,pH,"pH of treated water; early flowback water, Example 19, 1.7 mmol/L oxidant, contact time 90 minutes",6.89
same,pH,"pH of treated water; produced water (Denver-Julesburg), Example 17, 29 mg/L",6.2
same,pH,"pH of treated water; produced water, Example 17, 29 mg/L plus 5 mg/L floc aid (Polymer B-40)",6.3
same,pH,pH of treated water; [5],5.9
same,pH,pH of treated water; [6],6.2
same,Magnesium (mg/L as CaCO3),[3]; 29 mg/L plus 5 mg/L floc aid,200 mg/L as CaCO3
same,Calcium (mg/L as CaCO3),[3]; 29 mg/L plus 5 mg/L floc aid,940 mg/L as CaCO3
same,Hardness (mg/L as CaCO3),[3]; 29 mg/L plus 5 mg/L floc aid,1140 mg/L as CaCO3
same,Magnesium (mg/L as CaCO3),[3]; 52 mg/L,200 mg/L as CaCO3
same,Calcium (mg/L as CaCO3),[3]; 52 mg/L,1020 mg/L as CaCO3
same,Hardness (mg/L as CaCO3),[3]; 52 mg/L,1220 mg/L as CaCO3
same,half-life,"[4]; 7.5% (wt/vol) solution, 25 °C, clean water, initial pH 10.1",1.33 to 1.42 h
same,final pH of solution,"[4]; 7.5% solution, 25 °C, at 265 min, initial pH 10.1",7.3
same,concentration of oxidant,[4]; within about 6 days' time,less than 5 mg/L

# — US11827543B2, “Method for continuous supply of superoxide-containing peracetate oxidant solution” (Clean Chemistry, Inc., priority 2014, dated 2023)
